Consider eight molecules from patent US9072756B2, “Methods and compositions for increasing the efficacy of an agent that directly or indirectly affects a muscarinic receptor through administration of a pyrophosphate analog” (HealthPartners Research Foundation, priority 2000, dated 2015).

In test [1] the test system is muscarinic acetylcholine receptor (mAChR). Kind of test: Protection of mAChR from inactivation by the endogenous LMW inhibitor, [3H]QNB (antagonist) binding. Also noted: species or system human. Conditions: for protection of the mAChR from inactivation by the LMW inhibitor (in words): FIGS. 4-7, 15, 17, 19; for EC50: read-out: concentration that provides 50% protection of the mAChR.

In test [2] the target is muscarinic acetylcholine receptor (mAChR). Conditions: read-out: concentration that provides 50% protection of the mAChR from damage by PbCl2, 3H-QNB binding, FIG. 20.
Test [3] shares this target. Kind of test: Protection of mAChR from inactivation by heme and peroxide, [3H]QNB (antagonist) binding. Also on record: species or system human. The settings on record: 3H-QNB binding, FIG. 16.
Setting [4] is: LMW inhibitor, 3H-QNB binding, FIGS. 11, 13, 14.

Read-outs that look alike come from different tables or passages of the source.

In the case of `Nc1ncnc2c1ncn2[C@@H]1O[C@H](COP(=O)(O)OP(=O)(O)NP(=O)(O)O)[C@@H](O)[C@H]1O` [adenylylimidodiphosphate], in test [1] (LMW inhibitor, 3H-QNB binding), the “protection of the mAChR from inactivation by the LMW inhibitor (in words)” value (“protection … by the LMW inhibitor (in words)” for short) is “protect the mAChR from inactivation”.

With `C=CC1=C(C)/C(=C/C2=NC(=C\c3[nH]c(/C=C4\NC(=O)C(C)=C4C=C)c(C)c3CCC(=O)O)/C(CCC(=O)O)=C2C)NC1=O` [biliverdin], the EC50 in test [1] (setting [4]) worked out at 3000 nM.

With `CC(C)c1cc2c(c(O)c1O)[C@@]13CCCC(C)(C)[C@@H]1C[C@@H]2OC3=O` [carnosol], the “protection of the mAChR from inactivation” value in test [1] (at 1 μM, LMW inhibitor, 3H-QNB binding, FIG. 12) is recorded as 100%. For `O=c1c(O)c(-c2cc(O)c(O)c(O)c2)oc2cc(O)cc(O)c12` [myricetin], the EC50 in test [1] (setting [4]) worked out at 400 nM. Regarding `O=P(O)(O)OP(=O)(O)O` [pyrophosphate], the EC50 in test [1] (inactivation by LMW inhibitor or heme and peroxide, loss of antagonist (3H-QNB) and agonist (3H-Oxotremorine M) binding, FIGS. 1-3, not specified further) is about 1000 nM; in test [2], about 57000 nM. Take `O=c1c(O)c(-c2ccc(O)c(O)c2)oc2cc(O)cc(O)c12` [quercetin]: in test [1] (setting [4]), the EC50 was 240 nM. For `O=P(O)(O)OP(=O)(O)OP(=O)(O)O` [tripolyphosphate], the “protection … by the LMW inhibitor (in words)” value in test [1] (LMW inhibitor, 3H-QNB binding) is given as “protect the mAChR from inactivation”. Consider catalase, for which the “protection … by the LMW inhibitor (in words)” value in test [1] (LMW inhibitor, 3H-QNB binding) is listed as “protected the mAChR from inactivation”. In test [3], the “amount that provided 50% protection from inactivation by heme and peroxide” value came out at 0.34 units/mL.
